Reference: ChEMBL document CHEMBL1201862, “PubChem BioAssay data set” (2004)
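Growth conditions: 96-well plates. Treatment: test compound, 48 hours, 5 concentrations. Analysis: linear interpolation between bracketing concentrations; unreached endpoints set to highest concentration. The concentration for 50% growth inhibition is given as GI50.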 The source made the active and inactive calls. No stated cut-off is given here; in the data, active = GI50 up to about 1.1 µM and inactive = higher.

Experiments:
Assay in all cases: NCI anticancer screen, dose series, 48 h
786-0 = test system: 786-0
A498 = test system: A498
A549 = test system: A549
ACHN = test system: ACHN
BT-549 = test system: BT-549
CAKI-1 = test system: CAKI-1
CCRF-CEM = test system: CCRF-CEM
COLO 205 = test system: COLO 205
DU-145 = test system: DU-145
EKVX = test system: EKVX
HCC 2998 = test system: HCC 2998
HCT-116 = test system: HCT-116
HCT-15 = test system: HCT-15
HL-60 = test system: HL-60
HOP-62 = test system: HOP-62
HOP-92 = test system: HOP-92
HT-29 = test system: HT-29
Hs-578T = test system: Hs-578T
IGROV-1 = test system: IGROV-1
K562 = test system: K562
KM12 = test system: KM12
LOX IMVI = test system: LOX IMVI
M14 = test system: M14
MCF7 = test system: MCF7
MDA-MB-231 = test system: MDA-MB-231
MDA-MB-435 = test system: MDA-MB-435
MDA-N = test system: MDA-N
MOLT-4 = test system: MOLT-4
Malme-3M = test system: Malme-3M
NCI-H226 = test system: NCI-H226
NCI-H23 = test system: NCI-H23
NCI-H460 = test system: NCI-H460
NCI-H522 = test system: NCI-H522
NCI/ADR-RES = test system: NCI/ADR-RES
OVCAR-3 = test system: OVCAR-3
OVCAR-4 = test system: OVCAR-4
OVCAR-5 = test system: OVCAR-5
OVCAR-8 = test system: OVCAR-8
PC-3 = test system: PC-3
RPMI-8226 = test system: RPMI-8226
RXF 393 = test system: RXF 393
SF-268 = test system: SF-268
SF-295 = test system: SF-295
SF-539 = test system: SF-539
SK-MEL-28 = test system: SK-MEL-28
SK-MEL-2 = test system: SK-MEL-2
SK-MEL-5 = test system: SK-MEL-5
SK-OV-3 = test system: SK-OV-3
SN12C = test system: SN12C
SNB-19 = test system: SNB-19
SNB-75 = test system: SNB-75
SR = test system: SR
SW-620 = test system: SW-620
T47D = test system: T47D
TK-10 = test system: TK-10
U-251 = test system: U-251
UACC-257 = test system: UACC-257
UACC-62 = test system: UACC-62
UO-31 = test system: UO-31
DLD-1 = test system: DLD-1
DMS-273 = test system: DMS-273
HOP-18 = test system: HOP-18
KM-20L2 = test system: KM-20L2
LXFL 529 = test system: LXFL 529
M19-MEL = test system: M19-MEL

C=CCNC1=C2C[C@@H](C)C[C@H](OC)[C@H](O)[C@@H](C)/C=C(\C)[C@H](OC(N)=O)[C@@H](OC)/C=C\C=C(/C)C(=O)NC(=CC1=O)C2=O [TANESPIMYCIN]
GI50 (786-0): 0.0638 µM (active)
GI50 (A498): 5.07 µM (inactive)
GI50 (A549): 0.0369 µM (active)
GI50 (ACHN): 0.127 µM (active)
GI50 (BT-549): 5.73 µM (inactive)
GI50 (CAKI-1): 1.29 µM (inactive)
GI50 (CCRF-CEM): 0.493 µM (active)
GI50 (COLO 205): 0.0124 µM (active)
GI50 (DU-145): 0.0569 µM (active)
GI50 (EKVX): 4.01 µM (inactive)
GI50 (HCC 2998): 0.0664 µM (active)
GI50 (HCT-116): 0.0311 µM (active)
GI50 (HCT-15): 0.204 µM
GI50 (HL-60): 0.0489 µM (active)
GI50 (HOP-62): 0.15 µM (active)
GI50 (HOP-92): 3.69 µM (inactive)
GI50 (HT-29): 0.0113 µM (active)
GI50 (Hs-578T): 0.575 µM (active)
GI50 (IGROV-1): 0.0331 µM (active)
GI50 (K562): 0.0405 µM (active)
GI50 (KM12): 0.0165 µM (active)
GI50 (LOX IMVI): 0.0186 µM (active)
GI50 (M14): 0.0214 µM (active)
GI50 (MCF7): 0.0137 µM (active)
GI50 (MDA-MB-231): 1.11 µM (active)
GI50 (MDA-MB-435): 0.0427 µM (active)
GI50 (MDA-N): 0.0199 µM (active)
GI50 (MOLT-4): 0.527 µM (active)
GI50 (Malme-3M): 0.0619 µM (active)
GI50 (NCI-H226): 4.49 µM (inactive)
GI50 (NCI-H23): 0.014 µM (active)
GI50 (NCI-H460): 0.0136 µM (active)
GI50 (NCI-H522): 0.0431 µM (active)
GI50 (NCI/ADR-RES): 5.69 µM (inactive)
GI50 (OVCAR-3): 0.115 µM (active)
GI50 (OVCAR-4): 4.39 µM (inactive)
GI50 (OVCAR-5): 0.177 µM (active)
GI50 (OVCAR-8): 0.0607 µM (active)
GI50 (PC-3): 0.047 µM (active)
GI50 (RPMI-8226): 0.0731 µM (active)
GI50 (RXF 393): 0.0813 µM (active)
GI50 (SF-268): 0.593 µM (active)
GI50 (SF-295): 0.0745 µM (active)
GI50 (SF-539): 0.0428 µM (active)
GI50 (SK-MEL-28): 0.396 µM (active)
GI50 (SK-MEL-2): 0.292 µM (active)
GI50 (SK-MEL-5): 0.0259 µM (active)
GI50 (SK-OV-3): 0.0262 µM (active)
GI50 (SN12C): 0.0308 µM (active)
GI50 (SNB-19): 0.525 µM (active)
GI50 (SNB-75): 0.0173 µM (active)
GI50 (SR): 0.0158 µM (active)
GI50 (SW-620): 0.279 µM (active)
GI50 (T47D): 0.847 µM (active)
GI50 (TK-10): 0.0881 µM (active)
GI50 (U-251): 0.158 µM (active)
GI50 (UACC-257): 0.0532 µM (active)
GI50 (UACC-62): 0.0326 µM (active)
GI50 (UO-31): 0.428 µM (active)

CC(=O)N(C(C)=O)C1=C2c3ccccc3N(S(=O)(=O)c3ccccc3)C2n2c(=O)n(-c3ccccc3)c(=O)n2C1 (centres undefined)
GI50 (786-0): 38.6 µM (inactive)
GI50 (A549): 65.6 µM (inactive)
GI50 (ACHN): 30.9 µM (inactive)
GI50 (CAKI-1): 27.5 µM (inactive)
GI50 (CCRF-CEM): 35 µM (inactive)
GI50 (COLO 205): 30.7 µM (inactive)
GI50 (DLD-1): 32.6 µM (inactive)
GI50 (DMS-273): 44.2 µM (inactive)
GI50 (EKVX): 21.9 µM (inactive)
GI50 (HCC 2998): 22.7 µM (inactive)
GI50 (HCT-116): 43.3 µM (inactive)
GI50 (HCT-15): 30.4 µM
GI50 (HL-60): 23.3 µM (inactive)
GI50 (HOP-18): 22 µM (inactive)
GI50 (HOP-62): 62.4 µM (inactive)
GI50 (HOP-92): 24.2 µM (inactive)
GI50 (HT-29): 59 µM (inactive)
GI50 (IGROV-1): 41.7 µM (inactive)
GI50 (K562): 40.1 µM (inactive)
GI50 (KM-20L2): 34.2 µM (inactive)
GI50 (KM12): 34.7 µM (inactive)
GI50 (LOX IMVI): 29.9 µM (inactive)
GI50 (LXFL 529): 39.7 µM (inactive)
GI50 (M14): 27.3 µM (inactive)
GI50 (M19-MEL): 27.1 µM (inactive)
GI50 (Malme-3M): 20.9 µM (inactive)
GI50 (NCI-H23): 26.5 µM (inactive)
GI50 (NCI-H460): 15.3 µM (inactive)
GI50 (NCI-H522): 17.1 µM (inactive)
GI50 (OVCAR-3): 25.5 µM (inactive)
GI50 (OVCAR-5): 30.6 µM (inactive)
GI50 (OVCAR-8): 23.3 µM (inactive)
GI50 (RPMI-8226): 12.7 µM (inactive)
GI50 (SF-268): > 100 µM (inactive)
GI50 (SF-295): 31.8 µM (inactive)
GI50 (SF-539): 19.9 µM (inactive)
GI50 (SK-MEL-28): 30 µM (inactive)
GI50 (SK-MEL-2): 22.9 µM (inactive)
GI50 (SK-MEL-5): 27 µM (inactive)
GI50 (SK-OV-3): 32.8 µM (inactive)
GI50 (SN12C): 69.7 µM (inactive)
GI50 (SNB-19): 30.3 µM (inactive)
GI50 (SNB-75): 14 µM (inactive)
GI50 (SR): 5.78 µM (inactive)
GI50 (SW-620): 40.6 µM (inactive)
GI50 (TK-10): 36.8 µM (inactive)
GI50 (U-251): 34.4 µM (inactive)
GI50 (UACC-257): 44.2 µM (inactive)
GI50 (UACC-62): 18.1 µM (inactive)
GI50 (UO-31): 29.7 µM (inactive)
